Data published in US8889075B2, “Apparatus for producing water having redox activity” (Kitakyushu Foundation for the Advancement of Industry, …, priority 2007, dated 2014).

Tested on: active oxygen responsive calcium channel (TPC1 channel) of tobacco BY-2 cells
Assay: aequorin luminescence of tobacco BY-2 culture cells after adding reaction water (evaluation of redox activity)
Assay type: cell-based
Conditions: for suppression of the aequorin luminescence reaction induced by water containing active oxygen species: agent added to the reaction, FIG. 11
Excerpt: In a living organism, Ca^2+ is a signal-transmitting substance which becomes a key in an information transmission path which controls metabolism and gene expression. Usually, a concentration of cytoplasm free calcium ion (hereinafter abbreviated as [Ca^2+]cyt) in live cell is maintained at low concentration and with a difference of 10^6 to 10^7 times compared to extracellular cytoplasm free calcium ion. On a cell membranes of living organisms including plants, calcium channels which constitute calcium inflow paths which are activated and open in response to a specific stimulus exist. The presence of most of calcium channels is elucidated at a gene level or at a protein level. […] As a method of nondestructively measuring the behavior of Ca^2+ in the cell, particularly, a change of [Ca^2+]cyt, a method of monitoring the change of [Ca^2+]cyt in response to various stimulations using cells to which gene of aequorin which is Ca^2+ responsive photoprotein derived from Aequorea Victoria is established. Due to this method, it is possible to monitor the change of [Ca^2+]cyt real time by observing bioluminescence. Accordingly, it is possible to determine whether or not water is turned into water having redox reaction in which the redox action is actually generated and the intracellular response is brought about. […] By evaluating effect of addition of aluminum as an ion channel blocker and effects of an active oxygen removing agent, it is possible to determine whether or not a specific active oxygen responsive calcium channel is stimulated (Kawano, T., Kadono, T., Fumoto, […]., Kuse, M. Isobe, M. Furuichi, T. and Muto, S. (2004) Aluminum as a specific inhibitor of plant TPC1 Ca^2+ channels. Biochemical and Biophysical Research Communications 324 (1): 40-45). Accordingly, by using the experimental system, it is possible to evaluate whether or not active oxygen species are present at a level where active oxygen species can stimulate calcium information transmission which is a key of various physiological action including the cell death or the gene expression in the plant cell. […] 100 ml of water having redox activity is added to 500 ml of suspension of cells in which aequorin is expressed (1:5 mixture, 600 ml in total), and CLA chemiluminescence and aequorin luminescence are measured. The luminescence intensity is marked as relative luminescence intensity (rlu). […]

[Al+3] [Al^3+]
suppression of the aequorin luminescence reaction induced by water containing active oxygen species: suppressed

[La+3] [La^3+]
suppression of the aequorin luminescence reaction induced by water containing active oxygen species: suppressed

O=S(=O)(O)c1cc(O)c(O)c(S(=O)(=O)O)c1 [Tiron]
suppression of the aequorin luminescence reaction induced by water containing active oxygen species: suppressed

[O]O [superoxide anion radicals]
concentration of superoxide anion radicals needed for water to have redox activity (intracellular response) (comparison of dissolved oxygen 8 mg/L and 30 mg/L samples, UV plus ultrasonic vibrations, FIG. 12): at least 5 mM
